Patent EP4233857A1, “BIOACTIVE COMPOUNDS OBTAINED FROM CY[…] SP. LEGE 181152” (CIIMAR - Centro Interdisciplinar de Investigação Marinha e …, priority 2022, dated 2023)
Entries after “also recorded” stand apart in the source; their conditions may differ.

Key:
[1] = system: brine shrimp; conditions: cited from earlier work
[2] = system: panel of 60 human cancer cell lines; conditions: Williamson et al., 2002; cited from earlier work
[3] = system: human colorectal carcinoma cell line, HCT 116; test: Cytotoxicity on 3D cancer spheroids, cell viability by acid phosphatase assay; format: cell-based
Description: The cytotoxicity of the fractions A to H2 was tested against the 3D model of the human colorectal carcinoma cell line, HCT 116. Colorectal cancer has one of the highest incidences among cancer diagnosis and is also one of cancers with the highest mortality rate. Over the years, the 3D cell models have taken over drug screening due to their biologically relevance when compared to the more conventional monolayer model. Three dimensional spheroids are more representative of the microenvironment of an in vivo tumour, with interactions between cells in the different layers - a necrotic core, an intermediate quiescent layer, and a proliferative outer layer.
Cells were seeded in ULA 96 well plates and incubated for 5 days for spheroid formation. After formation, spheroids were exposed to the fractions (25 µg/mL) for 96h. Cell viability was assessed by the acid phosphatase assay. In viable cells these intracellular enzymes hydrolyse […], which can be quantified colorimetrically at 405 nm. The results were expressed as the percentage of cell viability normalized to the solvent control (DMSO). […]

[4] = system: HCT 116 human colon carcinoma cells; test: Cytotoxicity on monolayer (2D) cells; format: cell-based; conditions: 2D assay (monolayer)
Description: The cytotoxic effect of phormidolide D (3) was tested against HCT 116 human colon carcinoma cells in monolayer (2D) and spheroid models (Figure 11). […] The difference of the IC50 values between the two cell models is commonly reported in the literature. Cancer spheroids tend to be more resistant to treatment than monolayer cells, and thus tend to present higher IC50 values. However, the cytotoxic effects in cancer spheroids are more realistic, because in this culture model, drug diffusion and cell proliferation effects are being tested. The results obtained for compound 3 are very interesting: despite its molecular weight (1064 g/mol) it can still penetrate the tightly packed cells of the outer layer of the spheroid, leading to a decrease in the cell viability in relevant concentrations (Figure 9). […]

| Substance | LD50 [1] | cytotoxicity against a panel of 60 cancer cells [2] | IC50 [3] | IC50 [4] |
| --- | --- | --- | --- | --- |
| phormidolide A | 1.5 µM | noncytotoxic; also recorded: not considered active |  |  |
| phormidolide D |  |  | 13.6 µM | 1.21 µM |
